The values below are quoted from earlier work in patent US20050124598A1, “Antibiotic compounds” (priority 2001, published 2005).

The data set has as its target PBP2a (Staphylococcus aureus, UniProt P07944). As to conditions: reported β-lactam inhibitors, literature values.

Chain of PBP2a (P07944 whole entry): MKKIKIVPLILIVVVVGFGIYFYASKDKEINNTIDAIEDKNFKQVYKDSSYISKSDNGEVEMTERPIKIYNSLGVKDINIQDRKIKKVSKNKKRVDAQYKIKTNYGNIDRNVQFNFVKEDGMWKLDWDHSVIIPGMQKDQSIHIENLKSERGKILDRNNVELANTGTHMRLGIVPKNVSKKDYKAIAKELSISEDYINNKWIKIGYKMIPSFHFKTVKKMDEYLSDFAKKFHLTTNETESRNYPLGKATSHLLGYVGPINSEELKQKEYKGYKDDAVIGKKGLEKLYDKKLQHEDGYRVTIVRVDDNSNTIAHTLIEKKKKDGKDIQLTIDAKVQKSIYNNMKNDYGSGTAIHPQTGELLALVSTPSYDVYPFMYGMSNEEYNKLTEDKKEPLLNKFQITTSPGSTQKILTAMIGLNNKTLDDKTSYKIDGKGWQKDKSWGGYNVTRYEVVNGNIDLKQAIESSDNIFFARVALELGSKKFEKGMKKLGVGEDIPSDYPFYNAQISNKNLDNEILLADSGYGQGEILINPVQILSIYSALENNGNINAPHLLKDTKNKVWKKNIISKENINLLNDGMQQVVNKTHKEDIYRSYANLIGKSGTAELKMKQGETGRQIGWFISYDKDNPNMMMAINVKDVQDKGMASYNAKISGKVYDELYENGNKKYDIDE

Turning to `NCCSCc1cnccc1SC1=C(C(=O)O)N2C(=O)[C@@H](NC(=O)/C(=N\O)c3nc(N)sc3Cl)[C@H]2SC1` [MC-02479], the “IC50 for PBP2a” value is 0.5 µg/mL.

With `NC(=O)C[n+]1ccc(S/C=C/C2=C(C(=O)[O-])N3C(=O)C(NC(=O)/C(=N\O)c4csc(N)n4)C3SC2)cc1` (centres unmarked) [TOC-39], the “IC50 for PBP2a” value is 0.58 µg/mL.
